Source: ChEMBL document CHEMBL4229524, “Design, synthesis and preclinical evaluation of 5-methyl-N4-aryl-furo[2,3-d]pyrimidines as single agents with combination chemotherapy potential” (Bioorg Med Chem Lett, 2018)
One block for each compound: values may come before it.

Legend:
[1] = target: Epidermal growth factor receptor (Homo sapiens, UniProt P00533); assay type: cell-based
[2] = target: Vascular endothelial growth factor receptor 2 (Homo sapiens, UniProt P35968); assay type: cell-based
[3] = target: Platelet-derived growth factor receptor beta (Homo sapiens, UniProt P09619); assay: Inhibition of PDGF-BB-induced PDGFRbeta activation in human SH-SY5Y cells pretreated for 60 mins followed by PDGF-BB addition and measured after 10 mins by ELISA; assay type: cell-based
A-431 = assay: Cytotoxicity against human A431 cells over-expressing EGFR; assay type: functional, cell-based
Chorioallantoic membrane [4] = assay: Antiangiogenic activity in Leghorn chicken embryo chorioallantoic membrane after 40 hrs by microscopic analysis; assay type: functional, tissue-based; settings: Gallus gallus
A10 = assay: Induction of microtubule depolymerization in rat A10 cells after 18 hrs by indirect immunofluorescence method; assay type: functional, cell-based; settings: A10, 18 h
MDA-MB-435 = assay: Antiproliferative activity against human MDA-MB-435 cells after 72 hrs by sulforhodamine B assay; assay type: functional, cell-based; settings: MDA-MB-435, 72 h
SK-OV-3 = assay: Antiproliferative activity against human SKOV3 cells after 72 hrs by sulforhodamine B assay; assay type: functional, cell-based; settings: SK-OV-3, 72 h
[5] = Antiproliferative activity against human SKOV3-MDR1-M6/6 cells after 72 hrs by sulforhodamine B assay; assay type: functional; settings: SKOV3-MDR1-M6/6, 72 h
[6] = Resistance index, ratio of IC50 for human SKOV3-MDR1-M6/6 cells to IC50 for human SKOV3 cells; assay type: functional
HeLa = assay: Antiproliferative activity against human HeLa cells after 72 hrs by sulforhodamine B assay; assay type: functional, cell-based
[7] = Antiproliferative activity against human wild-type Hela-beta3 cells after 72 hrs by sulforhodamine B assay; assay type: functional
[8] = Resistance index, ratio of IC50 for human HeLa cells to IC50 for human wild-type Hela-beta3 cells; assay type: functional
[9] = Inhibition of bovine brain tubulin assembly pretreated for 15 mins followed by GTP addition by spectrophotometric method; design: species or system Bos taurus
Bos taurus [10] = species: Bos taurus; assay: Inhibition of [3H]colchicine binding to bovine brain tubulin at 1 uM measured after 10 mins relative to control
Bos taurus [11] = species: Bos taurus; assay: Inhibition of [3H]colchicine binding to bovine brain tubulin at 5 uM measured after 10 mins relative to control
Chorioallantoic membrane [12] = assay: Potency index, ratio of sunitinib IC50 to test compound IC50 for antiangiogenic activity in Leghorn chicken embryo chorioallantoic membrane; assay type: functional, tissue-based; settings: Gallus gallus

Chain of Platelet-derived growth factor receptor beta (P09619 whole entry): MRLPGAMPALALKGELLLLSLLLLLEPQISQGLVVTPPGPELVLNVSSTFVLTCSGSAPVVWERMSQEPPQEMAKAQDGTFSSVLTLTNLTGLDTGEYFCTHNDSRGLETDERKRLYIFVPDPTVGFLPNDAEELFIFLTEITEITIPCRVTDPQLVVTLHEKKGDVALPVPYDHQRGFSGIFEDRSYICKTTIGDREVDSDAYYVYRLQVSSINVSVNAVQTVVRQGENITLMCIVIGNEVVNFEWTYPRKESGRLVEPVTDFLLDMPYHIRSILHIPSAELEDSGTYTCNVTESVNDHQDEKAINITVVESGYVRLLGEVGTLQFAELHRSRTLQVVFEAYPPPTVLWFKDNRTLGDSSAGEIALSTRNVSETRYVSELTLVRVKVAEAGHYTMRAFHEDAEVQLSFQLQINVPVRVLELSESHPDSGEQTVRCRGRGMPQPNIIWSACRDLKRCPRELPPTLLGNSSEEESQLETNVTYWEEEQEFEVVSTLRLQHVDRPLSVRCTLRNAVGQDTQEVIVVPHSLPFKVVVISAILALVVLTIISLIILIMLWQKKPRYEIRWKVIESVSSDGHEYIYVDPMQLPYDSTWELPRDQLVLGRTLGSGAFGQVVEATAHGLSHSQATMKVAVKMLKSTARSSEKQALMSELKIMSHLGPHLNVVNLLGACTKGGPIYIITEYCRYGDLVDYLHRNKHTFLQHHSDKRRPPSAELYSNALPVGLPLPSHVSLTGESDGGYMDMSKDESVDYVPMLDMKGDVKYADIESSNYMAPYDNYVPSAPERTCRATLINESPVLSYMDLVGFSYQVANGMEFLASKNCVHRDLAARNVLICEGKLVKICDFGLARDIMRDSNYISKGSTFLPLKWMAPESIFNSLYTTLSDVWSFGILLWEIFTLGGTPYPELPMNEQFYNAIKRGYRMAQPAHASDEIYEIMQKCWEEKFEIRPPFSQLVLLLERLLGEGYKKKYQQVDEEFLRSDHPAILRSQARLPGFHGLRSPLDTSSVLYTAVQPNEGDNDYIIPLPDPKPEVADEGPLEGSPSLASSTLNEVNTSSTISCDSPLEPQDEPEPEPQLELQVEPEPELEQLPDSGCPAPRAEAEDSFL
Chain of Vascular endothelial growth factor receptor 2 (P35968 whole entry): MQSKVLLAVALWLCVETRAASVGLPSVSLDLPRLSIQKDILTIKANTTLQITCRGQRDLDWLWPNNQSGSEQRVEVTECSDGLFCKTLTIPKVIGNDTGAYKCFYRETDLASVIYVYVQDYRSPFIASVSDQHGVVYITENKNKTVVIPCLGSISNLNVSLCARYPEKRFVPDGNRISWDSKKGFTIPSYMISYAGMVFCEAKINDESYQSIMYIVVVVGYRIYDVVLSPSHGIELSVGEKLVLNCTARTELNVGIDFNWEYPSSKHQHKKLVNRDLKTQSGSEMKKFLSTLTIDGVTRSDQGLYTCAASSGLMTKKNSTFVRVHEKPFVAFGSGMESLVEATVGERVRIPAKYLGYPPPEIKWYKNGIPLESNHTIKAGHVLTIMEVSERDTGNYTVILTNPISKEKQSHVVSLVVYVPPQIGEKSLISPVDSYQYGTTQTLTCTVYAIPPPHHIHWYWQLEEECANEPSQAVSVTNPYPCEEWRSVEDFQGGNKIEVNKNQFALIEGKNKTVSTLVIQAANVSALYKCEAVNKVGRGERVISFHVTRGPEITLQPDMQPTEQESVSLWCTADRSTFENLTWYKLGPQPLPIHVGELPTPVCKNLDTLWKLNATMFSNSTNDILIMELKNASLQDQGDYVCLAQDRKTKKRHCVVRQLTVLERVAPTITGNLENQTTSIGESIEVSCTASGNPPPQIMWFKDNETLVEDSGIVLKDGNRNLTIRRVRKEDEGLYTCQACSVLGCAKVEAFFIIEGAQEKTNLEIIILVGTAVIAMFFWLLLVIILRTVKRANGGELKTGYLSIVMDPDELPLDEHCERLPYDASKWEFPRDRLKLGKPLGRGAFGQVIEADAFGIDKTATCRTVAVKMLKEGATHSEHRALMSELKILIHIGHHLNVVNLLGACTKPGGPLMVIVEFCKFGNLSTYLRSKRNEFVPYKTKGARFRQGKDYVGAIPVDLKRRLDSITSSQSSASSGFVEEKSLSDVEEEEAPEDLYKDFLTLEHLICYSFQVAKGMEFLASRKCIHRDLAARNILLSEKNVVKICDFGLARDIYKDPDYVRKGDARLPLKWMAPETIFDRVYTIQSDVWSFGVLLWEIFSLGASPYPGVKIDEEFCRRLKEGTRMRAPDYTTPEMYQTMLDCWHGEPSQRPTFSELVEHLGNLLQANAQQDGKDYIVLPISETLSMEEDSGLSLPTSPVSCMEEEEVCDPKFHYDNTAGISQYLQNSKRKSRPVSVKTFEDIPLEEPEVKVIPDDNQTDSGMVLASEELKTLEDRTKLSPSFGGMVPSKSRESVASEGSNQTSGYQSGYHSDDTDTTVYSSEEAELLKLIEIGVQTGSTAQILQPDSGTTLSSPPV
Chain of Epidermal growth factor receptor (P00533 whole entry): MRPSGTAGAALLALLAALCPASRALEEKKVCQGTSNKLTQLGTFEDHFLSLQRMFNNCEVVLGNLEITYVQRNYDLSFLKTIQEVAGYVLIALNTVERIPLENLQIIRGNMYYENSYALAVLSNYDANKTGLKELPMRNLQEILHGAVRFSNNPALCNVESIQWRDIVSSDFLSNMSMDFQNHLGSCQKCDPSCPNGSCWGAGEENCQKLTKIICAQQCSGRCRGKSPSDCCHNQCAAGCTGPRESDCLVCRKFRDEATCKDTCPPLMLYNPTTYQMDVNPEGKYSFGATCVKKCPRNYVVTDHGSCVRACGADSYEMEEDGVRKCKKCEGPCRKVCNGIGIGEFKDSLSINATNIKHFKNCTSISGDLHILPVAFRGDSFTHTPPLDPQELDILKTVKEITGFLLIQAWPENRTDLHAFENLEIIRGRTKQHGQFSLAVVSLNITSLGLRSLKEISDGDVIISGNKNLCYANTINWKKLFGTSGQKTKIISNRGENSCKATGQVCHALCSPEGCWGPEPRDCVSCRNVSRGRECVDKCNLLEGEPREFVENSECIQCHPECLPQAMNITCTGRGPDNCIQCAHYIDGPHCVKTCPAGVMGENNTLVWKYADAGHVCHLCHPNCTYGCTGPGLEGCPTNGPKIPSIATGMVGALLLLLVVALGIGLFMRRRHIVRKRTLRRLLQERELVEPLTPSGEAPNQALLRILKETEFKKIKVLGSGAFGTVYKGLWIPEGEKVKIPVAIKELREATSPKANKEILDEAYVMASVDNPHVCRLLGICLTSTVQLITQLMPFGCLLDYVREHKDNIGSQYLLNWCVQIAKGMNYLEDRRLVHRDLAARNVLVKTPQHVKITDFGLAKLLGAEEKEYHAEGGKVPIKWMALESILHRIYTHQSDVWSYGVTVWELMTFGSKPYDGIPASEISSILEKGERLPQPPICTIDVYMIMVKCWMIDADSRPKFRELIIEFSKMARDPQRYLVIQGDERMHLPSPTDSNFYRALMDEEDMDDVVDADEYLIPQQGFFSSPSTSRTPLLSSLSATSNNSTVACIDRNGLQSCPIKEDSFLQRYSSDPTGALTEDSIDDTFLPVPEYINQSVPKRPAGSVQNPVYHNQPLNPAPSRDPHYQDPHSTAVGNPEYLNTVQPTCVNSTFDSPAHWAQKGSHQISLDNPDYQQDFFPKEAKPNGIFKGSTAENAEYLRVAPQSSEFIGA

SMILES: CCN(c1ccc(OC)cc1)c1ncnc2occ(C)c12
IC50 [1]: 92.5 nM
IC50 [2]: 67.3 nM
IC50 [3]: 51.4 nM
IC50 (A-431): 3.4 nM
IC50 (Chorioallantoic membrane [4]): 812 nM

SMILES: Cc1coc2ncnc(N(C)c3ccc(N(C)C)cc3)c12
IC50 [1]: 3.1 nM
IC50 [2]: 15.6 nM
IC50 [3]: 63 nM
IC50 (A-431): 1 nM
IC50 (Chorioallantoic membrane [4]): 653 nM
EC50 (A10): 140 nM
IC50 (MDA-MB-435): 44 nM
IC50 (SK-OV-3): 70 nM
IC50 [5]: 91 nM
Ratio IC50 [6]: 1.3
IC50 (HeLa): 58 nM
IC50 [7]: 60 nM
Ratio IC50 [8]: 1
IC50 [9]: 1100 nM
inhibition (Bos taurus [10]): 59%
inhibition (Bos taurus [11]): 86%

SMILES: Cc1coc2ncnc(N(C)c3ccc([N+](=O)[O-])cc3)c12
IC50 [1]: > 200 nM
IC50 [2]: > 200 nM
IC50 [3]: > 200 nM
IC50 (A-431): 433 nM
IC50 (Chorioallantoic membrane [4]): 1060 nM
EC50 (A10): > 10000 nM

Further lines, with some results ahead:

IC50 [1]: 10.1 nM
IC50 [2]: 23.4 nM
IC50 [3]: 42.6 nM
SMILES: COc1ccc(N(c2ncnc3occ(C)c23)C(C)C)cc1
IC50 (A-431): 4.8 nM
IC50 (Chorioallantoic membrane [4]): 480 nM

IC50 [1]: > 200 nM
IC50 [2]: > 200 nM
IC50 [3]: > 200 nM
EC50 (A10): > 10000 nM
SMILES: Cc1coc2ncnc(Nc3ccc(N(C)C)cc3)c12

IC50 [1]: 7.1 nM
IC50 [2]: 12 nM
IC50 [3]: 38.9 nM
SMILES: CCCN(c1ccc(OC)cc1)c1ncnc2occ(C)c12
IC50 (A-431): 2.3 nM
IC50 (Chorioallantoic membrane [4]): 301 nM
Ratio IC50 (Chorioallantoic membrane [12]): 4

IC50 [1]: 7.2 nM
IC50 [2]: 13.6 nM
IC50 [3]: 62.2 nM
SMILES: CSc1ccc(N(C)c2ncnc3occ(C)c23)cc1
IC50 (A-431): 2.9 nM
IC50 (Chorioallantoic membrane [4]): 520 nM
